Reference: patent US20040180093A1, “Polymer compositions with bioactive agent, medical articles, and methods” (3M Innovative Properties Company, priority 2003, published 2004)

Test system: Staphylococcus aureus bacteria
Assay: 2 Hours % Live Bacteria Test
Assay type: cell-based
Conditions: standard solution 0.5 wt-% in DI, calculated Ag+ weight 22,224 μg
Method: The effectiveness of a sample was tested using a L-7012, Bacterial Viability Kit, available from Molecular Probes (Eugene, Oreg.). The procedure is outlined below using the red, propidium iodide dye, and green, SYTO 9 dye, contained in the kit to stain the live and dead bacteria.
Preparation of bacteria solution: Staphylococcus aureus bacteria were grown in Trypticase (Tryptic) Soy Broth (TSB) medium overnight. Bacteria were concentrated by centrifugation at 10,000× gravity for 15 minutes (min). Supernatant was removed and the pellet was re-suspended in MilliQ water (filtered through a 0.2 μm pore-size filter) or in Butterfield phosphate buffer (from Hardy Diagnostics, Santa Maria, Calif.). […]
Sample preparation: All prototypes were prepared by punching out a 1-inch (2.54-cm) diameter samples using a stainless steel punch; sometimes as indicated in the examples a 1-inch (2.54 cm) disk was further cut with scissors in eighths and then evaluated. […]
Bacteria labeling and Anti-microbial testing: 7 m]L of bacteria solution at initial concentration of approximately 1×10^8 bacteria/mL were pipetted into a 50 mL conical tube containing the sample. […] These solutions were then measured by flow cytometry. Cell viability was measured using the BD FACSCaliber flow cytometer (made by Becton Dickinson & Company, Franklin Lakes, N.J.). […]

SMILES: O=[N+]([O-])[O-].[Ag+] [silver nitrate, Silver Nitrate]
- % live bacteria after 2 hours: 15.8%
